Laboratory results taken from ChEMBL document CHEMBL3045245, “Synthesis and antitumor activities of certain novel 2-amino-9-(4-halostyryl)-4H-pyrano[3,2-h]quinoline derivatives” (Med Chem Res, 2012).
Converted amounts (≈) assume the structure as drawn.

What was measured:
HepG2 [1] = assay: Cytotoxicity against Homo sapiens (human) HepG2 cells assessed as cell viability at 1.56 ug/ml after 48 hr by MTT assay; type: functional; conditions: HepG2, 48 h, read-out: Activity
HepG2 [2] = assay: Cytotoxicity against Homo sapiens (human) HepG2 cells assessed as cell viability at 3.125 ug/ml after 48 hr by MTT assay; type: functional; conditions: HepG2, 48 h, read-out: Activity
[3] = Cytotoxicity against Homo sapiens (human) HCT cells after 48 hr by MTT assay; type: functional, cell-based
MCF7 [4] = assay: Cytotoxicity against Homo sapiens (human) MCF7 cells after 48 hr by MTT assay; type: functional, cell-based; conditions: MCF7, 48 h
[5] = Cytotoxicity against Homo sapiens (human) HCT cells assessed as cell viability at 50 ug/ml after 48 hr by MTT assay; type: functional; conditions: read-out: Activity
MCF7 [6] = assay: Cytotoxicity against Homo sapiens (human) MCF7 cells assessed as cell viability at 12.5 ug/ml after 48 hr by MTT assay; type: functional; conditions: MCF7, 48 h, read-out: Activity
HepG2 [7] = assay: Cytotoxicity against Homo sapiens (human) HepG2 cells after 48 hr by MTT assay; type: functional, cell-based; conditions: HepG2, 48 h
[8] = Cytotoxicity against Homo sapiens (human) HCT cells assessed as cell viability at 12.5 ug/ml after 48 hr by MTT assay; type: functional; conditions: read-out: Activity
MCF7 [9] = assay: Cytotoxicity against Homo sapiens (human) MCF7 cells assessed as cell viability at 1.56 ug/ml after 48 hr by MTT assay; type: functional; conditions: MCF7, 48 h, read-out: Activity
[10] = Cytotoxicity against Homo sapiens (human) HCT cells assessed as cell viability at 25 ug/ml after 48 hr by MTT assay; type: functional; conditions: read-out: Activity
HepG2 [11] = assay: Cytotoxicity against Homo sapiens (human) HepG2 cells assessed as cell viability at 25 ug/ml after 48 hr by MTT assay; type: functional; conditions: HepG2, 48 h, read-out: Activity
HepG2 [12] = assay: Cytotoxicity against Homo sapiens (human) HepG2 cells assessed as cell viability at 12.5 ug/ml after 48 hr by MTT assay; type: functional; conditions: HepG2, 48 h, read-out: Activity
MCF7 [13] = assay: Cytotoxicity against Homo sapiens (human) MCF7 cells assessed as cell viability at 25 ug/ml after 48 hr by MTT assay; type: functional; conditions: MCF7, 48 h, read-out: Activity
[14] = Cytotoxicity against Homo sapiens (human) HCT cells assessed as cell viability at 3.125 ug/ml after 48 hr by MTT assay; type: functional; conditions: read-out: Activity
[15] = Cytotoxicity against Homo sapiens (human) HCT cells assessed as cell viability at 1.56 ug/ml after 48 hr by MTT assay; type: functional; conditions: read-out: Activity
[16] = Cytotoxicity against Homo sapiens (human) HCT cells assessed as cell viability at 6.25 ug/ml after 48 hr by MTT assay; type: functional; conditions: read-out: Activity
MCF7 [17] = assay: Cytotoxicity against Homo sapiens (human) MCF7 cells assessed as cell viability at 6.25 ug/ml after 48 hr by MTT assay; type: functional; conditions: MCF7, 48 h, read-out: Activity
HepG2 [18] = assay: Cytotoxicity against Homo sapiens (human) HepG2 cells assessed as cell viability at 50 ug/ml after 48 hr by MTT assay; type: functional; conditions: HepG2, 48 h, read-out: Activity
HepG2 [19] = assay: Cytotoxicity against Homo sapiens (human) HepG2 cells assessed as cell viability at 6.25 ug/ml after 48 hr by MTT assay; type: functional; conditions: HepG2, 48 h, read-out: Activity
MCF7 [20] = assay: Cytotoxicity against Homo sapiens (human) MCF7 cells assessed as cell viability at 3.125 ug/ml after 48 hr by MTT assay; type: functional; conditions: MCF7, 48 h, read-out: Activity
MCF7 [21] = assay: Cytotoxicity against Homo sapiens (human) MCF7 cells assessed as cell viability at 50 ug/ml after 48 hr by MTT assay; type: functional; conditions: MCF7, 48 h, read-out: Activity

| Compound | viability at 1.56 µg/mL (HepG2 [1]) [%] | viability at 3.125 µg/mL (HepG2 [2]) [%] | IC50 [3] [mg/L] | IC50 (MCF7 [4]) [mg/L] | viability at 50 µg/mL [5] [%] | viability at 12.5 µg/mL (MCF7 [6]) [%] | IC50 (HepG2 [7]) [mg/L] | viability at 12.5 µg/mL [8] [%] | viability at 1.56 µg/mL (MCF7 [9]) [%] | viability at 25 µg/mL [10] [%] | viability at 25 µg/mL (HepG2 [11]) [%] | viability at 12.5 µg/mL (HepG2 [12]) [%] | viability at 25 µg/mL (MCF7 [13]) [%] | viability at 3.125 µg/mL [14] [%] | viability at 1.56 µg/mL [15] [%] | viability at 6.25 µg/mL [16] [%] | viability at 6.25 µg/mL (MCF7 [17]) [%] | viability at 50 µg/mL (HepG2 [18]) [%] | viability at 6.25 µg/mL (HepG2 [19]) [%] | viability at 3.125 µg/mL (MCF7 [20]) [%] | further results |
| --- | --- | --- | --- | --- | --- | --- | --- | --- | --- | --- | --- | --- | --- | --- | --- | --- | --- | --- | --- | --- | --- |
| CCOC(=O)C1=C(N)Oc2c(ccc3ccc(/C=C/c4ccc(Br)cc4)nc23)C1c1ccc(Cl)cc1 (configuration not stated) | 72.1 | 49.6 | 6.1 (≈ 10.9 µM) | 5.4 (≈ 9.61 µM) | 17.6 | 41.6 | 3.1 (≈ 5.52 µM) | 34.4 | 69.4 | 24.7 | 22.9 | 36.4 | 31 | 66.2 | 72.1 | 48.1 | 45.5 | 14.6 | 39.3 | 57.9 | viability at 50 µg/mL (MCF7 [21]): 25.6% |
| CC[C@]1(O)C[C@@H]2CN(CCc3c([nH]c4ccccc34)[C@@](C(=O)OC)(c3cc4c(cc3OC)N(C)[C@H]3[C@@](O)(C(=O)OC)[C@H](OC(C)=O)[C@]5(CC)C=CCN6CC[C@]43[C@@H]65)C2)C1 [VINBLASTINE] | 72.1 | 55 | 2.6 (≈ 3.21 µM) | 6.1 (≈ 7.52 µM) | 16.3 | 29.6 | 4.6 (≈ 5.67 µM) | 28.2 | 76.2 | 21.7 | 16.1 | 24.2 | 15.2 | 47.5 | 53.4 | 38.1 | 48.8 | 14.4 | 45.1 | 60.4 | viability at 50 µg/mL (MCF7 [21]): 7.82% |
